IC50 data for 17 compounds are collected here from patent US9133183B2, “Imidazolidinones and analogs exhibiting anti-cancer and anti-proliferative activities” (Deciphera Pharmaceuticals, LLC, priority 2013, dated 2015).

SMILES strings stand for the structures. Like-named read-outs stand apart in the source and are kept apart here. A value given as a limit tells only on which side of the number the result lay.

Test [1] concerns the target unphosphorylated c-FMS kinase (uFMS, Seq. ID no. 1) (Homo sapiens (Human), UniProt P07333). The test is described as follows: uFMS kinase assay (ADP production coupled to pyruvate kinase/lactate dehydrogenase). The test is classed as biochemical. A digest of the protocol: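 Unphosphorylated FMS (10 nM) with polyE4Y 1 mg/mL and 500 μM ATP in 90 mM Tris pH 7.5, 10 mM MgCl2, 0.2% octyl-glucoside, 1% DMSO. ADP formation was coupled via pyruvate kinase/LDH to NADH oxidation, followed at A340 for 4 h at 30° C.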

The target of test [2] is unphosphorylated c-KIT kinase (uKIT, Seq. ID no. 2) (Homo sapiens (Human), UniProt P10721). As to the kind of experiment: uKit kinase assay (coupled pyruvate kinase/lactate dehydrogenase). The test is classed as biochemical. Particulars: enzymatic assay, ATP 2000 μM. A digest of the protocol: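 Unphosphorylated KIT (12 nM, N-terminal GST fusion) was run with 1 mg/mL polyE4Y, 2000 μM ATP and 10 mM MgCl2 in Tris buffer (pH 7.5, 0.2% octyl-glucoside, 1% DMSO). ADP was coupled via PK/LDH, with NADH loss tracked at A340 for 4 h at 30 °C. Rates at 3–4 h gave % inhibition and IC50.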
Chain of unphosphorylated c-KIT kinase (uKIT, Seq. ID no. 2) (P10721 other isoform, or with tags, fused parts or gaps): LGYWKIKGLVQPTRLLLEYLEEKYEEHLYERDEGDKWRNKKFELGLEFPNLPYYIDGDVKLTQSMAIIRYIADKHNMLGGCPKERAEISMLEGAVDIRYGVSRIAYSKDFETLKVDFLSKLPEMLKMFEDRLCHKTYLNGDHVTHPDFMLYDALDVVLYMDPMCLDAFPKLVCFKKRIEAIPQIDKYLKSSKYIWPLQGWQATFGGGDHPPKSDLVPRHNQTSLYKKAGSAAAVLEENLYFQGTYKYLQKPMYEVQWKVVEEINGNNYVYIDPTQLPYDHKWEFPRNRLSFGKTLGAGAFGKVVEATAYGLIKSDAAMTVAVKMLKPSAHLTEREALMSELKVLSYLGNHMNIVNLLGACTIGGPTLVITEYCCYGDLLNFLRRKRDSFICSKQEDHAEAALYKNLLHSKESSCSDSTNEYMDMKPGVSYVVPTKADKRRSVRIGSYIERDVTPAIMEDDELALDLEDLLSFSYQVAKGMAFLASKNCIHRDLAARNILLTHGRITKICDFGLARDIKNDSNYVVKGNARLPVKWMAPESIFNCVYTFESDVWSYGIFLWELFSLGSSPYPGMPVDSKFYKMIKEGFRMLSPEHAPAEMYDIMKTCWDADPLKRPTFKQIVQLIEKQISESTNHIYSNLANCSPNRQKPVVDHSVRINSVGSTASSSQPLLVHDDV

For test [3], the target named is unphosphorylated PDGFRβ kinase (uPDGFRβ, Seq. ID No. 3) (Homo sapiens (Human), UniProt P09619). The test is described as follows: Unphosphorylated PDGFRβ kinase assay (coupled pyruvate kinase/lactate dehydrogenase). It counts as biochemical. Particulars: enzymatic assay, ATP 500 μM. The method, boiled down: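 Construct residues 557-1106, unphosphorylated, 15.7 nM, with poly E4Y 2.5 mg/mL and 500 μM ATP, Tris pH 7.5, 1% DMSO, 30 °C. ADP coupled to NADH oxidation via PK/LDH, A340 followed 4 h; rate from 1.5-2.5 h versus no-compound control, IC50 from percent-inhibition series.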
Chain of unphosphorylated PDGFRβ kinase (uPDGFRβ, Seq. ID No. 3) (P09619 557-1106): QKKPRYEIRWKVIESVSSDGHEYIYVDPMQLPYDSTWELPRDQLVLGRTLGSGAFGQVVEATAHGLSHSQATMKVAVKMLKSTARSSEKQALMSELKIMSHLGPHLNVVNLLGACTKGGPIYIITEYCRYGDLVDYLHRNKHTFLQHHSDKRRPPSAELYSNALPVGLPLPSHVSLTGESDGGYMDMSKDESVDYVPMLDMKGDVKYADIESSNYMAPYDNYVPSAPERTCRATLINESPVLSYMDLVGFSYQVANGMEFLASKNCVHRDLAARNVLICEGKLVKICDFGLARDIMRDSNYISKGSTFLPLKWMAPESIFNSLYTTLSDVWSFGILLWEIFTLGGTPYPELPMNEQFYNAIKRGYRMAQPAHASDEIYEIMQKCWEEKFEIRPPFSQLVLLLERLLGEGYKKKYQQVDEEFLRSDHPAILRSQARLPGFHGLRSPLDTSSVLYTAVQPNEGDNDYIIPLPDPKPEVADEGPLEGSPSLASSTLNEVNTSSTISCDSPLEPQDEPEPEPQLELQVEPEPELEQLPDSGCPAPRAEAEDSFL

Test [4] addresses c-FMS kinase in THP-1 cells (Homo sapiens (Human), UniProt P07333). As to the kind of experiment: Phospho-FMS ELISA assay in THP-1 cells. It counts as cell-based. Conditions: 4 h compound, M-CSF stimulation 5 min; read-out: pFMS inhibition in THP-1 cells. As for the experimental part:
THP-1 cells (catalog #TIB-202) were obtained from the ATCC. Briefly, cells were grown in RPMI 1640 supplemented with 10% characterized fetal bovine serum, 1% sodium pyruvate, 1% Penicillin-Streptomycin-Glutamine (PSG) and 55 uM 2-mercaptoethanol (Invitrogen, Carlsbad, Calif.) at 37 degrees Celsius, 5% CO2, 95% humidity. Cells were allowed to expand until reaching 70-95% confluency at which point they were subcultured or harvested for assay use.
A serial dilution of test compound was diluted 1:100 in assay medium (RPMI 1640 supplemented with 10% characterized fetal bovine serum) in a 96 well black clear bottom plate (Corning, Corning, N.Y.). In a separate 96 well black clear bottom plate, one hundred and fifty thousand THP-1 cells were added per well in 100 μL in assay medium. Fifty microliters of diluted compound was then added to the cells. Plates were incubated for 4 hours at 37 degrees Celsius, 5% CO2, 95% humidity. At the end of the incubation period, cells were stimulated with 50 μL of a 100 nM solution of recombinant human M-CSF (catalog #216-MC, R & D Systems, Minneapolis, Minn.) in assay medium and the plate was incubated for 5 minutes at 37 degrees Celsius, 5% CO2, 95% humidity. Lysates were prepared and used to perform the phospho-FMS ELISA as described by the manufacturer (catalog #DYC3268, R & D Systems, Minneapolis, Minn.). GraphPad Prism was used to calculate IC50 values obtained from data generated from the ELISA assay.
A general note: In an ELISA, binding on a coated surface is turned into a signal by an enzyme label.

Where [5] appears, read: enzymatic assay, ATP 500 μM, read-out: uFMS.

Chain of c-FMS kinase in THP-1 cells (P07333 20-972): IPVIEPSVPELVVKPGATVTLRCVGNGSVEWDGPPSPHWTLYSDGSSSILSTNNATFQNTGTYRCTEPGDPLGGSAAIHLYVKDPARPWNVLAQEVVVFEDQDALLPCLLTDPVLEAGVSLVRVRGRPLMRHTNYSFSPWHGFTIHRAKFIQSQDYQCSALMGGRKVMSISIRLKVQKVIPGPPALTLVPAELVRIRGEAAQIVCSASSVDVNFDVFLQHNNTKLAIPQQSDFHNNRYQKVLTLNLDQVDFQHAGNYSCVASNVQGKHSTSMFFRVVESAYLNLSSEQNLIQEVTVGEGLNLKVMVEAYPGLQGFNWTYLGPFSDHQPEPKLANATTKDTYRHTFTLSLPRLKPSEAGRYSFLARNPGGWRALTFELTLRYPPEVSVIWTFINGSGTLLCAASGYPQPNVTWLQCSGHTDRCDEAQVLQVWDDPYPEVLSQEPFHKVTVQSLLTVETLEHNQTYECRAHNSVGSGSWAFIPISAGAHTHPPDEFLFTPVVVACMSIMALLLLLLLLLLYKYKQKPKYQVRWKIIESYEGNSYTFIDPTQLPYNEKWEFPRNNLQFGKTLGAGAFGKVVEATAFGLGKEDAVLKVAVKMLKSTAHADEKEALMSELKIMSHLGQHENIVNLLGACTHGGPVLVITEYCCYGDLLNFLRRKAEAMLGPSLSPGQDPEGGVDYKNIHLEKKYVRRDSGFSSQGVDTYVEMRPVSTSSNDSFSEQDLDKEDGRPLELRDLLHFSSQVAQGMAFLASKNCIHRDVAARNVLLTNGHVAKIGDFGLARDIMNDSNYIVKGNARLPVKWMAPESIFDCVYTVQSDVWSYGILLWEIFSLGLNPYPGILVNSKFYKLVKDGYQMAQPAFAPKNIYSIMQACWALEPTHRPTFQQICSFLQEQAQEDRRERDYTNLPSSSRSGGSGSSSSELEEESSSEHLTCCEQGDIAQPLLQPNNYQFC
Chain of unphosphorylated c-FMS kinase (uFMS, Seq. ID no. 1) (P07333 538-972): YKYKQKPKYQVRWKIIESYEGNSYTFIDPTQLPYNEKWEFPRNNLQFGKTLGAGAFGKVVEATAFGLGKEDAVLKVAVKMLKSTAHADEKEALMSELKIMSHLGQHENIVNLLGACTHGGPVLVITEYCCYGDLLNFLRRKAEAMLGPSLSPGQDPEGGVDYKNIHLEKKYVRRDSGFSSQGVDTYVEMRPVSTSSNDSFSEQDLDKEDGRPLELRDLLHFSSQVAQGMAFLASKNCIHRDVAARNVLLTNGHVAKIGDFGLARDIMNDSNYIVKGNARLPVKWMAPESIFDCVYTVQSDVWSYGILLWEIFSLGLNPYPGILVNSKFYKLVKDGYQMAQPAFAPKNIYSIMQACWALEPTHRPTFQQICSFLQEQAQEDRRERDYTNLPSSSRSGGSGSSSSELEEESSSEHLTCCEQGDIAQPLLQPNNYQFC

On to `Cn1cc(-c2cc(Oc3ccc(NC(=O)N4CCN(C5CCOC5)C4=O)nc3)ccn2)cn1` (stereo in doubt) [Example 12, (S)—N-(5-((2-(1-methyl-1H-pyrazol-4-yl)pyridin-4-yl)oxy)pyridin-2-yl)-2-oxo-3-(tetrahydrofuran-3-yl)imidazolidine-1-carboxamide], for which the IC50 was 10 to 100 nM in test [1] (setting [5]), 10 to 100 nM in test [2], over 1000 nM in test [3] and 10 to 100 nM in test [4].
For `Cn1cc(-c2cc(Oc3ccc(NC(=O)N4CCN(C5CCOCC5)C4=O)nc3)ccn2)cn1` [Example 1, N-(5-((2-(1-methyl-1H-pyrazol-4-yl)pyridin-4-yl)oxy)pyridin-2-yl)-2-oxo-3-(tetrahydro-2H-pyran-4-yl)imidazolidine-1-carboxamide], the IC50 in test [1] (Table 4, read-out: c-FMS IC50) was 6 nM; in test [1] (setting [5]), under 10 nM; in test [2], 10 to 100 nM; in test [3] it was 100 to 1000 nM; in test [4], 10 to 100 nM.
For the compound `Cc1nc(NC(=O)N2CCN(C3CCOCC3)C2=O)ccc1Oc1ccnc(-c2cnn(C)c2)c1` [Example 3, N-(6-methyl-5-((2-(1-methyl-1H-pyrazol-4-yl)pyridin-4-yl)oxy)pyridin-2-yl)-2-oxo-3-(tetrahydro-2H-pyran-4-yl)imidazolidine-1-carboxamide], the IC50 was under 10 nM in test [1] (setting [5]), 100 to 1000 nM in test [2], over 1000 nM in test [3] and 10 to 100 nM in test [4].
In the same order, the values of `CCn1cc(-c2cc(Oc3ccc(NC(=O)N4CCN(C5CCOCC5)C4=O)nc3)ccn2)cn1` [Example 4, N-(5-((2-(1-ethyl-1H-pyrazol-4-yl)pyridin-4-yl)oxy)pyridin-2-yl)-2-oxo-3-(tetrahydro-2H-pyran-4-yl)imidazolidine-1-carboxamide] are 10 to 100 nM, 10 to 100 nM, 100 to 1000 nM and under 10 nM.
In the same order, the values of `Cc1cc(-c2cc(Oc3ccc(NC(=O)N4CCN(C5CCOCC5)C4=O)nc3)ccn2)on1` [Example 7, N-(5-((2-(3-methylisoxazol-5-yl)pyridin-4-yl)oxy)pyridin-2-yl)-2-oxo-3-(tetrahydro-2H-pyran-4-yl)imidazolidine-1-carboxamide] are 10 to 100 nM, 10 to 100 nM, over 1000 nM and 10 to 100 nM.
In the same order, the values of `COCCN1CCN(C(=O)Nc2ccc(Oc3ccnc(-c4cnn(C)c4)c3)cn2)C1=O` [Example 10, 3-(2-methoxyethyl)-N-(5-((2-(1-methyl-11H-pyrazol-4-yl)pyridin-4-yl)oxy)pyridin-2-yl)-2-oxoimidazolidine-1-carboxamide] are 10 to 100 nM, 100 to 1000 nM, over 1000 nM and under 10 nM.
On to `COCCCN1CCN(C(=O)Nc2ccc(Oc3ccnc(-c4cnn(C)c4)c3)cn2)C1=O` [Example 11, 3-(3-methoxypropyl)-N-(5-((2-(1-methyl-1H-pyrazol-4-yl)pyridin-4-yl)oxy)pyridin-2-yl)-2-oxoimidazolidine-1-carboxamide], for which the IC50 in test [1] (setting [5]) was 10 to 100 nM; in test [2], 10 to 100 nM; in test [3], over 1000 nM; in test [4], 10 to 100 nM.
For `COC[C@H](C)N1CCN(C(=O)Nc2ccc(Oc3ccnc(-c4cnn(C)c4)c3)cn2)C1=O` [Example 16, (S)-3-(1-methoxypropan-2-yl)-N-(5-((2-(1-methyl-11H-pyrazol-4-yl)pyridin-4-yl)oxy)pyridin-2-yl)-2-oxoimidazolidine-1-carboxamide], the IC50 in test [1] (setting [5]) was under 10 nM; in test [2], under 10 nM; in test [3], 100 to 1000 nM; in test [4] it was 10 to 100 nM.
For `COCCN1CCN(C(=O)Nc2ccc(Oc3ccnc(-c4cnn(C)c4)c3)c(C)n2)C1=O` [Example 18, 3-(2-methoxyethyl)-N-(6-methyl-5-((2-(1-methyl-1H-pyrazol-4-yl)pyridin-4-yl)oxy)pyridin-2-yl)-2-oxoimidazolidine-1-carboxamide], the IC50 in test [1] (Table 4, read-out: c-FMS IC50) is 20 nM; in test [1] (setting [5]) it was 10 to 100 nM; in test [2], 100 to 1000 nM; in test [3], over 1000 nM; in test [4] it was 10 to 100 nM.
Consider `COCCCN1CCN(C(=O)Nc2ccc(Oc3ccnc(-c4cnn(C)c4)c3)c(C)n2)C1=O` [Example 19, 3-(3-methoxypropyl)-N-(6-methyl-5-((2-(1-methyl-1H-pyrazol-4-yl)pyridin-4-yl)oxy)pyridin-2-yl)-2-oxoimidazolidine-1-carboxamide], for which the IC50 is 10 to 100 nM in test [1] (setting [5]), 10 to 100 nM in test [2], over 1000 nM in test [3] and 10 to 100 nM in test [4].
`Cc1nc(NC(=O)N2CCN(C3COC3)C2=O)ccc1Oc1ccnc(-c2cnn(C)c2)c1` [Example 20, N-(6-methyl-5-((2-(1-methyl-1H-pyrazol-4-yl)pyridin-4-yl)oxy)pyridin-2-yl)-3-(oxetan-3-yl)-2-oxoimidazolidine-1-carboxamide]: the IC50 is 10 to 100 nM in test [1] (setting [5]), 100 to 1000 nM in test [2], over 1000 nM in test [3] and 10 to 100 nM in test [4].
With `Cn1cc(-c2cc(Oc3ccc(NC(=O)N4CCN(CCOC(F)(F)F)C4=O)nc3)ccn2)cn1` [Example 21, N-(5-((2-(1-methyl-1H-pyrazol-4-yl)pyridin-4-yl)oxy)pyridin-2-yl)-2-oxo-3-(2-(trifluoromethoxy)ethyl)imidazolidine-1-carboxamide], the IC50 was 10 to 100 nM in test [1] (setting [5]), 10 to 100 nM in test [2], over 1000 nM in test [3] and 10 to 100 nM in test [4].
As for `Cc1nc(NC(=O)N2CCN(C3CCCCC3)C2=O)ccc1Oc1ccnc(-c2cnn(C)c2)c1` [Example 22, 3-cyclohexyl-N-(6-methyl-5-((2-(1-methyl-1H-pyrazol-4-yl)pyridin-4-yl)oxy)pyridin-2-yl)-2-oxoimidazolidine-1-carboxamide], the IC50 in test [1] (setting [5]) was under 10 nM; in test [2], 10 to 100 nM; in test [3], over 1000 nM; in test [4], 10 to 100 nM.
Turning to `Cn1cc(-c2cc(Oc3ccc(NC(=O)N4CCN(C5CCC(F)(F)CC5)C4=O)nc3)ccn2)cn1` [Example 25, 3-(4,4-difluorocyclohexyl)-N-(5-((2-(1-methyl-1H-pyrazol-4-yl)pyridin-4-yl)oxy)pyridin-2-yl)-2-oxoimidazolidine-1-carboxamide], the IC50 is under 10 nM in test [1] (setting [5]), under 10 nM in test [2], 10 to 100 nM in test [3] and 10 to 100 nM in test [4].
For `Cc1nc(NC(=O)N2CCN(C3CCC(F)(F)CC3)C2=O)ccc1Oc1ccnc(-c2cnn(C)c2)c1` [Example 26, 3-(4,4-difluorocyclohexyl)-N-(6-methyl-5-((2-(1-methyl-1H-pyrazol-4-yl)pyridin-4-yl)oxy)pyridin-2-yl)-2-oxoimidazolidine-1-carboxamide], the IC50 in test [1] (setting [5]) is under 10 nM; in test [2], 10 to 100 nM; in test [3], over 1000 nM; in test [4] it was 10 to 100 nM.
`Cc1nc(NC(=O)N2CCN(C3CCCC3)C2=O)ccc1Oc1ccnc(-c2cnn(C)c2)c1` [Example 29, 3-cyclopentyl-N-(6-methyl-5-((2-(1-methyl-1H-pyrazol-4-yl)pyridin-4-yl)oxy)pyridin-2-yl)-2-oxoimidazolidine-1-carboxamide]: the IC50 was 2 nM in test [1] (Table 4, read-out: c-FMS IC50); under 10 nM in test [1] (setting [5]); under 10 nM in test [2]; over 1000 nM in test [3]; 10 to 100 nM in test [4].
In the case of `Cc1nc(NC(=O)N2CCN(C(C)(C)C)C2=O)ccc1Oc1ccnc(-c2cnn(C)c2)c1` [Example 33, 3-(tert-butyl)-N-(6-methyl-5-((2-(1-methyl-1H-pyrazol-4-yl)pyridin-4-yl)oxy)pyridin-2-yl)-2-oxoimidazolidine-1-carboxamide], the IC50 was under 10 nM in test [1] (setting [5]), under 10 nM in test [2], 100 to 1000 nM in test [3] and under 10 nM in test [4].
